Among the data in patent US7148227B2, “Fungicidal triazolopyrimidines, methods for producing the same, use thereof for combating harmful fungi and agents containing said substances” (BASF Aktiengesellschaft, priority 2002, dated 2006) are melting point values, retold here.

What is called melting point is the temperature of the solid-liquid transition.

For the compound `N#Cc1ccc(-c2c(Cl)nc3ncnn3c2NC2CCCC2)cc1` [I-3], the melting point was 207 °C.

The compound `CSc1cc(F)c(-c2c(Cl)nc3ncnn3c2NCC(F)(F)F)cc1F` [I-8] came in with a melting point of 161 °C.
